For 17 molecules, T/C results are on record in PubChem BioAssay AID248 (DTP/NCI, 2004).

Values joined by “and” are separate entries in the source; they are usually repeats but may differ in a detail not shown here. Equal values may be shown once. Toxic doses and inconclusive results are not listed.

This test has as its system L1210 leukemia ip in BDF1 mice, survival T/C. Description: NCI In Vivo Anticancer Drug Screen. Data for tumor model L1210 Leukemia (intraperitoneal) in B6D2F1 (BDF1) mice. Particulars: endpoint: mean survival time, higher = longer survival. Summed up: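 Each compound was tested against a transplantable tumor grown in mice. The endpoint was survival, with treated animals benchmarked against vehicle controls as a simple ratio.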

[1] abbreviates: dose: 25.0 mg/kg/injection, schedule: Q01DX009 (ip), vehicle: saline.
Setting [2] is: dose: 25.0 mg/kg/injection, schedule: Q04DX003 (ip), vehicle: saline.
Where [3] appears, read: dose: 50.0 mg/kg/injection, schedule: Q01DX009 (ip), vehicle: saline.
[4] abbreviates: dose: 50.0 mg/kg/injection, schedule: Q04DX003 (ip), vehicle: saline.
[5] abbreviates: dose: 100.0 mg/kg/injection, schedule: Q04DX003 (ip), vehicle: saline.
Setting [6] is: dose: 100.0 mg/kg/injection, schedule: Q04DX002 (ip), vehicle: Klucel (hydroxypropylcellulose) (HPC).
Where [7] appears, read: dose: 200.0 mg/kg/injection, schedule: Q04DX002 (ip), vehicle: Klucel (hydroxypropylcellulose) (HPC).
The mark [8] stands for this setting: dose: 50.0 mg/kg/injection, schedule: Q01DX009 (ip), vehicle: saline with Tween-80.
Where [9] appears, read: dose: 100.0 mg/kg/injection, schedule: Q01DX009 (ip), vehicle: saline with Tween-80.
Setting [10] is: dose: 200.0 mg/kg/injection, schedule: Q01DX009 (ip), vehicle: saline with Tween-80.
Setting [11] is: dose: 100.0 mg/kg/injection, schedule: Q01DX001 (ip), vehicle: carboxymethylcellulose (CMC).
Where [12] appears, read: dose: 200.0 mg/kg/injection, schedule: Q01DX001 (ip), vehicle: carboxymethylcellulose (CMC).
Setting [13] is: dose: 400.0 mg/kg/injection, schedule: Q01DX001 (ip), vehicle: carboxymethylcellulose (CMC).
Setting [14] is: dose: 25.0 mg/kg/injection, schedule: Q04DX003 (ip), vehicle: saline with Tween-80.
[15] abbreviates: dose: 50.0 mg/kg/injection, schedule: Q04DX003 (ip), vehicle: saline with Tween-80.
Setting [16] is: dose: 100.0 mg/kg/injection, schedule: Q04DX003 (ip), vehicle: saline with Tween-80.
[17] abbreviates: dose: 100.0 mg/kg/injection, schedule: Q01DX009 (ip), vehicle: Klucel (hydroxypropylcellulose) (HPC).
The mark [18] stands for this setting: dose: 200.0 mg/kg/injection, schedule: Q01DX009 (ip), vehicle: Klucel (hydroxypropylcellulose) (HPC).

For `CCCCCCCCCCCCCCCCCC1=NCCN1CCN`, the T/C reads like this: under setting [1], 111 % of control; under setting [2], 97 % of control; under setting [3], 97 % of control; under setting [4], 92 % of control; (dose: 100.0 mg/kg/injection, schedule: Q01DX001 (ip), vehicle: acetone) 100 % of control; under setting [5], 101 % of control.
In the case of `CC1CCCCN1Cc1ccccc1CC(=O)c1ccccc1` (stereo not drawn), the T/C by setting is: under setting [6], 93 % of control; under setting [7], 107 % of control.
With `O=C1c2ccccc2C(=O)N1CCOCCOCCOCCN1C(=O)c2ccccc2C1=O`, the T/C runs as follows: under setting [8], 97 % of control; under setting [9], 91 % of control; under setting [6], 102 % of control; under setting [10], 94 % of control; under setting [7], 94 % of control; (dose: 400.0 mg/kg/injection, schedule: Q04DX002 (ip), vehicle: Klucel (hydroxypropylcellulose) (HPC)) 102 % of control.
Regarding `CCCCCCCC/C=C\CCCCCCCCOB(OCCCCCCCC/C=C/CCCCCCCC)OCCCCCCCC/C=C/CCCCCCCC`, the T/C was 96 % of control (dose: 50.0 mg/kg/injection, schedule: Q01DX001 (ip), vehicle: carboxymethylcellulose (CMC)); 105 % of control under setting [11]; 105 % of control under setting [12]; 102 % of control under setting [13].
For the molecule `c1ccc2c(c1)[nH]c1ccncc12`, the T/C is 101 % of control under setting [14], 95 % of control under setting [15] and 97 % of control under setting [16].
Take `C(=NCC(CCN1CCCC1)(CCN1CCCC1)c1cccc2ccccc12)C(CCN1CCCC1)(CCN1CCCC1)c1cccc2ccccc12`: the T/C (dose: 5.0 mg/kg/injection, schedule: Q01DX009 (ip), vehicle: saline with Tween-80) was 106 % of control; the T/C (dose: 6.25 mg/kg/injection, schedule: Q04DX002 (ip), vehicle: saline) is 92 % of control; the T/C (dose: 10.0 mg/kg/injection, schedule: Q01DX009 (ip), vehicle: saline with Tween-80) is 106 % of control; the T/C (dose: 12.5 mg/kg/injection, schedule: Q04DX002 (ip), vehicle: saline) was 101 % of control.
On to `CC12CC3(C)CC(C)(C1)CC(NC(=O)N(CCCl)N=O)(C2)C3`, for which the T/C is, setting by setting: (dose: 20.0 mg/kg/injection, schedule: Q01DX001 (ip), vehicle: other) 155 % of control; (dose: 187.0 mg/kg/injection, schedule: Q01DX001 (ip), vehicle: other) 162 % of control; (dose: 250.0 mg/kg/injection, schedule: Q01DX001 (ip), vehicle: other) 187 % of control; (dose: 375.0 mg/kg/injection, schedule: Q01DX001 (ip), vehicle: other) 211 % of control; (dose: 500.0 mg/kg/injection, schedule: Q01DX001 (ip), vehicle: other) 258 % of control; (dose: 750.0 mg/kg/injection, schedule: Q01DX001 (ip), vehicle: other) 274 % of control.
For `O=C(OC1COC(Br)C(OC(=O)c2ccc([N+](=O)[O-])cc2)C1OC(=O)c1ccc([N+](=O)[O-])cc1)c1ccc([N+](=O)[O-])cc1` (stereo not drawn), the T/C (dose: 100.0 mg/kg/injection, schedule: Q01DX001 (ip), vehicle: saline) is 98 % of control; the T/C (dose: 200.0 mg/kg/injection, schedule: Q01DX001 (ip), vehicle: saline) is 96 % of control; the T/C (dose: 400.0 mg/kg/injection, schedule: Q01DX001 (ip), vehicle: saline) is 91 % of control.
With `COc1cc(N(CCCl)CCCl)c(OC)cc1C=Nc1cccc(Br)c1`, the T/C (dose: 26.6 mg/kg/injection, schedule: Q01DX009 (ip), vehicle: carboxymethylcellulose (CMC)) was 105 % of control; the T/C (dose: 40.0 mg/kg/injection, schedule: Q01DX009 (ip), vehicle: carboxymethylcellulose (CMC)) was 96 % of control; the T/C under setting [11] is 120 % of control; the T/C under setting [12] was 107 % of control; the T/C (dose: 266.0 mg/kg/injection, schedule: Q01DX001 (ip), vehicle: carboxymethylcellulose (CMC)) was 157 % of control.
For `CC1CCN(S(=O)(=O)c2ccc(Cl)cc2)CC1`, the T/C reads like this: under setting [17], 102 % of control; under setting [18], 97 % of control; (dose: 400.0 mg/kg/injection, schedule: Q01DX009 (ip), vehicle: Klucel (hydroxypropylcellulose) (HPC)) 97 % of control.
For the molecule `O=C(NO)c1cc(Cl)c(C(=O)NO)cc1Cl`, the T/C was 93 % of control (dose: 100.0 mg/kg/injection, schedule: Q01DX009 (ip), vehicle: other); 102 % of control under setting [5]; 95 % of control (dose: 200.0 mg/kg/injection, schedule: Q01DX009 (ip), vehicle: other); 102 % of control (dose: 200.0 mg/kg/injection, schedule: Q04DX003 (ip), vehicle: saline); 97 % of control (dose: 400.0 mg/kg/injection, schedule: Q04DX003 (ip), vehicle: saline).
Consider `C=CCC(N)Cc1ccccc1` (stereo not drawn), for which the T/C reads like this: (dose: 6.25 mg/kg/injection, schedule: Q01DX009 (ip), vehicle: saline) 101 % of control; (dose: 12.5 mg/kg/injection, schedule: Q01DX009 (ip), vehicle: saline) 113 % of control; under setting [1], 101 % of control; under setting [2], 96 % of control; under setting [3], 109 % of control; under setting [4], 105 % of control. Also, the T/C under setting [5] is 102 % of control.
`Cc1c(C)c(CC#N)c(C)c(C)c1CC#N`: the T/C runs as follows: under setting [17], 86 % of control; (dose: 100.0 mg/kg/injection, schedule: Q04DX003 (ip), vehicle: Klucel (hydroxypropylcellulose) (HPC)) 91 % of control; under setting [18], 88 % of control; (dose: 200.0 mg/kg/injection, schedule: Q04DX003 (ip), vehicle: Klucel (hydroxypropylcellulose) (HPC)) 88 % of control; (dose: 400.0 mg/kg/injection, schedule: Q04DX003 (ip), vehicle: Klucel (hydroxypropylcellulose) (HPC)) 94 % of control.
Turning to `C/C=C/C=C/C(=O)NO`, the T/C reads like this: (dose: 50.0 mg/kg/injection, schedule: Q01DX009 (ip), vehicle: Klucel (hydroxypropylcellulose) (HPC)) 93 % of control; (dose: 62.0 mg/kg/injection, schedule: Q03HX024 (ip), vehicle: saline) 101 % of control; under setting [17], 102 % of control; (dose: 125.0 mg/kg/injection, schedule: Q03HX024 (ip), vehicle: saline) 94 % of control; (dose: 177.0 mg/kg/injection, schedule: Q01DX009 (ip), vehicle: carboxymethylcellulose (CMC)) 117 % of control; (dose: 177.0 mg/kg/injection, schedule: Q01DX009 (ip), vehicle: saline) 94 % of control. Further, the T/C is, setting by setting: under setting [18], 104 % of control; (dose: 266.0 mg/kg/injection, schedule: Q01DX009 (ip), vehicle: saline) 117 % of control; (dose: 400.0 mg/kg/injection, schedule: Q01DX009 (ip), vehicle: saline) 121 % of control; (dose: 600.0 mg/kg/injection, schedule: Q01DX009 (ip), vehicle: saline) 165 % of control.
As to `O=C(Nc1cccc(F)c1)SCc1ccccc1`, the T/C is, setting by setting: (dose: 100.0 mg/kg/injection, schedule: Q01DX009 (ip), vehicle: gum acacia) 90 % of control; (dose: 200.0 mg/kg/injection, schedule: Q01DX009 (ip), vehicle: gum acacia) 90 % of control; (dose: 400.0 mg/kg/injection, schedule: Q01DX009 (ip), vehicle: gum acacia) 98 % of control.
Consider `N#Cc1ncc(C(Cl)(Cl)Cl)nc1Cl`, for which the T/C is, setting by setting: (dose: 25.0 mg/kg/injection, schedule: Q01DX009 (ip), vehicle: saline with Tween-80) 103 % of control; under setting [14], 100 % of control; under setting [8], 105 % of control; under setting [15], 100 % of control; under setting [9], 105 % of control and 108 % of control; under setting [16], 106 % of control. The T/C under setting [10] was 103 % of control and the T/C (dose: 400.0 mg/kg/injection, schedule: Q01DX009 (ip), vehicle: saline with Tween-80) was 110 % of control.
As to `O=C1c2ccccc2-c2cc(Br)c(NC(=O)C(Cl)Cl)cc21`, the T/C reads like this: under setting [11], 115 % of control; under setting [12], 98 % of control; under setting [13], 98 % of control.
